Test results reported in ChEMBL document CHEMBL3352172, “Discovery of S-adenosyl-L-homocysteine hydrolase inhibitors based on non-adenosine analogs” (Bioorg Med Chem Lett, 2014).

Biological target: Adenosylhomocysteinase (Homo sapiens, UniProt P23526)
Test: Inhibition of human recombinant S-adenosyl-L-homocysteine hydrolase assessed as AdoHcy hydrolysis activity by HPLC analysis

Chain of Adenosylhomocysteinase (P23526 whole entry): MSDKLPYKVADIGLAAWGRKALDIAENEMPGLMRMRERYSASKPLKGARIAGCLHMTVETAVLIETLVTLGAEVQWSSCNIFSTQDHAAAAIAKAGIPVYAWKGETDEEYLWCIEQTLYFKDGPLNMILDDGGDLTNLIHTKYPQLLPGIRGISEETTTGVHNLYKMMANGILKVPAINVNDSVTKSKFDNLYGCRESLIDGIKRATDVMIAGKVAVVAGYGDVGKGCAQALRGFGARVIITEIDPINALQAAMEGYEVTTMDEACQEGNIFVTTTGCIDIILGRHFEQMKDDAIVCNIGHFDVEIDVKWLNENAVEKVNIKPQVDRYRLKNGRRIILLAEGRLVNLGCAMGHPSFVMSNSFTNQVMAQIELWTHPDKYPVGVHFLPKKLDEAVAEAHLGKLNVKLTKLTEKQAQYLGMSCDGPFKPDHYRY

O=C(CN(CC(=O)N1CCc2ccccc2C1)c1cc(Cl)ccc1Oc1ccc(Cl)cc1)NCCN1CCCC1
IC50: 17 µM

O=C(CN(CC(=O)NC1Cc2ccccc2C1)c1cc(Cl)ccc1Oc1ccc(Cl)cc1)NCCN1CCCC1
IC50: 11.4 µM

O=C(CN(CC(=O)N1CCC(c2ccccc2)CC1)c1cc(Cl)ccc1Oc1ccc(Cl)cc1)NCCN1CCCC1
IC50: 0.97 µM

CN(C(=O)CN(CC(=O)NC1CCNC1)c1cc(Cl)ccc1Oc1ccc(Cl)cc1)C1Cc2ccccc2C1 (configuration not stated)
IC50: 1.5 µM

CN(C(=O)CN(CC(=O)NCCN1CCCC1)c1cc(Cl)ccc1Oc1ccc(Cl)cc1)C1CCNCC1
IC50: > 100 µM

O=C(CN(CC(=O)N1Cc2ccccc2C1)c1cc(Cl)ccc1Oc1ccc(Cl)cc1)NCCN1CCCC1
IC50: > 100 µM

CN(C(=O)CN(CC(=O)NC1CCCNC1)c1cc(Cl)ccc1Oc1ccc(Cl)cc1)C1Cc2ccccc2C1 (configuration not stated)
IC50: 1.2 µM
